The conditions of the data set: human, in vivo, 4.5 mg/kg.

The compound `COc1cc(/C=C/C(=O)CC(=O)/C=C/c2ccc(O)c(OC)c2)ccc1O` [curcumin, diferuloylmethane] returned a blood plasma levels of 5 to 11 µmol.
